Results on 17 compounds are retold here after ChEMBL document CHEMBL5236610, “A Comprehensive Overview of Small-Molecule Androgen Receptor Degraders: Recent Progress and Future Perspectives” (J Med Chem, 2022).

The IC50 is the midpoint of a concentration-inhibition curve. The term half-life denotes the time in which the quantity being followed falls by half. The EC50 is the midpoint of the concentration-response curve.

Series [1] addresses T1, Androgen receptor (Homo sapiens, UniProt P10275).
T1 sequence (P10275 whole entry): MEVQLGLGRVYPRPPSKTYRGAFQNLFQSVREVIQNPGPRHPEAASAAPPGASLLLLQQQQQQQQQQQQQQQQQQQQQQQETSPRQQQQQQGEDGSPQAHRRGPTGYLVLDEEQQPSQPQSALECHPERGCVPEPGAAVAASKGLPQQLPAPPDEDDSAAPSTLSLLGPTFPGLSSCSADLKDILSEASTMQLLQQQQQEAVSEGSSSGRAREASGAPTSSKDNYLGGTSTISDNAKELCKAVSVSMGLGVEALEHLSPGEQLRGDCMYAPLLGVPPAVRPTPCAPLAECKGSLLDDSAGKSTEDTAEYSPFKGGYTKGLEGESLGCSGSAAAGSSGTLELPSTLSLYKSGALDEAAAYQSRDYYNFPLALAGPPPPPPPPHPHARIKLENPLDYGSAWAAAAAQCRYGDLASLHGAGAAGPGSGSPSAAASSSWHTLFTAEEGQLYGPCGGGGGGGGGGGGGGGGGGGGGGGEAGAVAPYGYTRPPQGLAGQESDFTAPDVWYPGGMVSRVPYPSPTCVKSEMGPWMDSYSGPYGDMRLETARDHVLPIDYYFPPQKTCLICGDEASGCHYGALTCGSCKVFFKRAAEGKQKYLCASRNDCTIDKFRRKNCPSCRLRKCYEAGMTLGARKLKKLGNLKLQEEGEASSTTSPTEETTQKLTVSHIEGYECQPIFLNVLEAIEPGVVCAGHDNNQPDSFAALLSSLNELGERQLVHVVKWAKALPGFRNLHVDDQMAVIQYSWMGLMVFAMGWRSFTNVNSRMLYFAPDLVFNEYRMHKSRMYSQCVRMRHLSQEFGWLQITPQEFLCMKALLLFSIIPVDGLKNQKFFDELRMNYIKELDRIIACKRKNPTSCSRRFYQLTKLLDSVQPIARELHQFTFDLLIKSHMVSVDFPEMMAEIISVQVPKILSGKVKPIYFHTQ
As to the kind of experiment: Inhibition of Androgen receptor (unknown origin).

The subject of series [2] is LNCaP. The experiment in a line: Antitumor activity against human LNCaP cells xenografted in nude mouse assessed as decrease in tumor weight at 40 mg/kg via oral gavage for six days weekly for 70 days relative to control. Type of series: functional. The following applies: time 70 day. Details: scale not given: the % may be the effect or the level left. (A xenograft is tissue or cells of one species grown in another, often human tumour cells in immunodeficient mice.)

Series [3] concerns LNCaP. The experiment in a line: Antitumor activity against human LNCap cells xenografted in NSG mouse assessed as tumor growth inhibition at 100 mg/kg, sc relative to control. The series is classed as functional. The following applies: read-out: TGI.
Another series in a line: in vitro. The following applies: mouse, liver microsomes. A general note: Microsomes from liver hold many membrane-bound enzymes, among them those of drug oxidation.
In series [4] the target is T2, von Hippel-Lindau disease tumor suppressor/Androgen receptor (Homo sapiens, UniProt P10275+P40337). The experiment in a line: PROTAC activity at VHL/AR-V7 in human 22Rv1 cells assessed as induction of AR-V7 degradation incubated for 24 hrs by immunoblot assay. Type of series: cell-based.
Target sequence in this assay (P40337 whole entry, looked up, change not shown, one chain of several): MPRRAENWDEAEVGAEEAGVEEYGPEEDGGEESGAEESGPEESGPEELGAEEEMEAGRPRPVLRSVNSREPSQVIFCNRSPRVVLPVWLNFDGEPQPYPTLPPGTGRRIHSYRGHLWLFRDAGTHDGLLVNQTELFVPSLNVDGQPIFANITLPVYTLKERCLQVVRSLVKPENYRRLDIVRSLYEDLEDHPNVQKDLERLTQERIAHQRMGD
For series [5], the target named is T2, von Hippel-Lindau disease tumor suppressor/Androgen receptor. As to the kind of experiment: PROTAC activity at VHL/full length AR in human 22Rv1 cells assessed as induction of AR degradation incubated for 24 hrs by immunoblot assay. Type of series: cell-based. (Immunoblotting shows a protein as a band on a membrane.)
Target sequence in this assay (P40337 whole entry, one chain of several): as the sequence (P40337 whole entry, looked up, change not shown, one chain of several) above
Series [6] has as its target T1, Androgen receptor. The experiment in a line: Induction of degradation of AR LBD in human LNCaP cells. The series is classed as cell-based.
In series [7] the target is T1, Androgen receptor. As to the kind of experiment: Inhibition of AR LBD in human LNCaP cells. Type of series: cell-based.
A short description of series [8]: Downregulation of AR-Vs level in human LNCaP cells at 10 uM by Western blot analysis relative to control. Type of series: functional.
The nature of series [9]: Downregulation of AR level in human LNCaP cells at 10 uM by Western blot analysis relative to control. The series is classed as functional.
A short description of series [10]: Downregulation of AR level in human CWR22Rv cells at 10 uM by Western blot analysis relative to control. Type of series: functional.
A short description of series [11]: Antitumor activity in human CWR22rv cells xenografted NOD.CB17-PrkdcSCID/J mouse model assessed as inhibition of tumor growth at 10 mg/kg, ip relative to control. The series is classed as functional. Details: scale not given: the % may be the effect or the level left.
Series [12] can be described thus: Downregulation of AR-Vs level in human CWR22Rv cells at 10 uM by Western blot analysis relative to control. Type of series: functional.
In a further series the test system is VCaP. As to the kind of experiment: Antiproliferative activity against human VCaP cells incubated for 168 hrs by […] assay. Type of series: functional, cell-based.
Series [13] concerns LNCaP. As to the kind of experiment: Antiproliferative activity against human LNCap cells incubated for 168 hrs by […] assay. Type of series: functional, cell-based.
The test system of series [14] is LNCaP. The experiment in a line: Antiproliferative activity against human LNCAP cells assessed as reduction in cell viability. Type of series: functional, cell-based.
Series [15] concerns CWR22R. As to the kind of experiment: Antiproliferative activity against human 22Rv1 cells assessed as reduction in cell viability. Type of series: functional, cell-based.
The target of series [16] is Protein cereblon/Androgen receptor (Homo sapiens, UniProt P10275+Q96SW2). The experiment in a line: Protac activity at CRBN/Androgen receptor in human LNCaP cells assessed as Androgen receptor degradation incubated for 24 hrs. The series is classed as cell-based.
Chain of Protein cereblon/Androgen receptor (Q96SW2 whole entry, one chain of several): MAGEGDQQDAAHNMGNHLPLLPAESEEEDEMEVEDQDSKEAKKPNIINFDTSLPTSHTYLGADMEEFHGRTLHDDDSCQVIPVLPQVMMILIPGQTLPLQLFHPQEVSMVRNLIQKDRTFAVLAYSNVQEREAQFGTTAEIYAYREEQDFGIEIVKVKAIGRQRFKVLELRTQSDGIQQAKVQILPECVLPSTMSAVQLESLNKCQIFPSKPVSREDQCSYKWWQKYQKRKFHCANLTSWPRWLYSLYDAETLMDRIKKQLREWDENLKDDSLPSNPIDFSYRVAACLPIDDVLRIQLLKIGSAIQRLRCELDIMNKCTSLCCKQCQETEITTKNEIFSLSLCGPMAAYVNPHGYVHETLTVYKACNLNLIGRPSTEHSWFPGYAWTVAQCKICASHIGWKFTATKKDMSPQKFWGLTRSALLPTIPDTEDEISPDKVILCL
In series [17] the test system is CWR22R. The experiment in a line: Antitumor activity against human 22Rv1 cells xenografted in BALB/c nude mouse assessed as reduction in tumor volume at 10 mg/kg administered daily by vernier caliper method relative control. The series is classed as functional. Details: scale not given: the % may be the effect or the level left.
The subject of series [18] is LNCaP C4-2B. As to the kind of experiment: Antiproliferative activity against human C4-2B cells. The series is classed as functional, cell-based.
Series [19] has as its system PC-3. As to the kind of experiment: Antitumor activity against human PC-3 cells xenografted in mouse assessed as reduction in tumor at 50 mg/kg in presence of bicalutamide relative to control. More on the design: scale not given: the % may be the effect or the level left. The series is classed as functional.
In series [20] the test system is LNCaP C4-2B. The experiment in a line: Antiproliferative activity against human LNCaP C4-2B cells. Type of series: functional, cell-based.
In series [21] the test system is PC-3. As to the kind of experiment: Antiproliferative activity against human PC-3 cells. The series is classed as functional, cell-based.
The test system of series [22] is CWR22R. The experiment in a line: Antiproliferative activity against human 22Rv1 cells. Type of series: functional, cell-based.
In series [23] the test system is LNCaP. As to the kind of experiment: Antiproliferative activity against human LNCap cells. Type of series: functional, cell-based.
Series [24] has as its system CWR22R. As to the kind of experiment: Antitumor activity against human 22rv1 cells xenografted in mouse assessed as suppression of tumor growth at 100 mg/kg, po administered daily for 25 days relative to control. Type of series: functional. The following applies: time 25 day.
The target of series [25] is T3, Steroid 17-alpha-hydroxylase/17,20 lyase (Homo sapiens, UniProt P05093).
T3 sequence (P05093 whole entry): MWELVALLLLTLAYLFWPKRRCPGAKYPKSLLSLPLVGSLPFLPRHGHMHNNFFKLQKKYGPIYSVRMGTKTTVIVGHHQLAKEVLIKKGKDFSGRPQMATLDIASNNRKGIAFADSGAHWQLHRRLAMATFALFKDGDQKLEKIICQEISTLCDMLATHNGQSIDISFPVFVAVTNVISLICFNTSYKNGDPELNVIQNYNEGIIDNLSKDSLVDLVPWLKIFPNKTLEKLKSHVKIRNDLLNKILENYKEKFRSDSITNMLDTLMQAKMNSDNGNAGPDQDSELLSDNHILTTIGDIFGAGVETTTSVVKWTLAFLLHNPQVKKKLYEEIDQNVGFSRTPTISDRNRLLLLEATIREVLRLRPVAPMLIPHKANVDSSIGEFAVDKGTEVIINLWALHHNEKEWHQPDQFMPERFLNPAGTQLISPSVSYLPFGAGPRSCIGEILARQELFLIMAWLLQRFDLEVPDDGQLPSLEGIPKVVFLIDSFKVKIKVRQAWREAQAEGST
As to the kind of experiment: Inhibition of CYP17AI in human 22Rv1 cells. The series is classed as ADME, cell-based.

For series [26], the target named is T3, Steroid 17-alpha-hydroxylase/17,20 lyase. As to the kind of experiment: Inhibition of CYP17AI in human LNCaP cells. Type of series: ADME, cell-based.
Series [27] deals with CWR22R. The experiment in a line: Antiproliferative activity against human 22Rv1 cells incubated for 24 hrs by CCK-8 assay. The series is classed as functional, cell-based. Particulars: 22Rv1, 24 h.
In series [28] the test system is PC-3. The experiment in a line: Antiproliferative activity against human PC-3 cells incubated for 24 hrs by CCK-8 assay. Type of series: functional, cell-based. Particulars: PC-3, 24 h.
Another series deals with LNCaP C4-2. As to the kind of experiment: Antiproliferative activity against human C4-2 cells incubated for 24 hrs by CCK-8 assay. The series is classed as functional, cell-based. The following applies: LNCaP C4-2, 24 h.
In the next series the test system is DU-145. The experiment in a line: Antiproliferative activity against human DU-145 cells incubated for 24 hrs by CCK-8 assay. The series is classed as functional, cell-based. The following applies: DU-145, 24 h.

Description for in vitro: Metabolic stability in mouse liver microsomes assessed as half life by LC-MS/MS analysis

On Androgen receptor [1], `Clc1ccc(-c2cnc3n2CCC3)cc1` registered an IC50 of 4.3 µM.
Turning to `CC(C)=CCC[C@](C)(O)[C@H]1CC[C@]2(C)[C@@H]1[C@H](O)C[C@@H]1[C@@]3(C)CC[C@H](O)C(C)(C)[C@@H]3CC[C@]12C`, the Activity with LNCaP [2] was 32.6%.
For `C[C@](O)(Cn1ccc2cc(F)ccc21)C(=O)Nc1ccc(C#N)c(C(F)(F)F)c1`, the inhibition in vivo at 100 mg/kg with LNCaP [3] was found to be 65%.
In turn, `CN(C[C@](C)(O)C(=O)Nc1ccc(C#N)c(C(F)(F)F)c1)c1ccc(C#N)c(-c2ccccc2)c1` yielded a half-life in “in vitro” of 1 min.
Regarding `Cc1ncsc1-c1ccc([C@H](C)NC(=O)[C@@H]2C[C@@H](O)CN2C(=O)[C@@H](NC(=O)CCCCNC(=O)COc2c(-c3csc(N4CCOCC4)n3)ccc(F)c2F)C(C)(C)C)cc1`, the results for the EC50 in [4] and in [5] were 0.37 µM and 2 µM, respectively.
`CC1(C)C(=O)N(c2ccc(C#N)c(C(F)(F)F)c2)C(=S)N1CCCC(=O)NCCOCCOC(=O)CC12CC3CC(CC(C3)C1)C2`: the EC50 at Androgen receptor [6] turned out to be 1 µM. The midpoint of inhibition against Androgen receptor [7], the IC50, lay at 0.156 µM.
On to `CCOc1ccc2c(c1OC(C)C)CCN(c1ccc(C(=O)Nc3cccc(C)n3)cn1)C2`, for which the Activity in series [8] is on record as above 90%; in series [9], above 90%; in series [10], above 90%; in series [11], 65%; in series [12] it was above 90%.
`CC1(C)C(=O)N(c2ccc(C#N)c(C(F)(F)F)c2)C(=S)N1CCCCOc1cccc2c1C(=O)N(C1CCC(=O)NC1=O)C2=O` (configuration not stated): the figures for the IC50 in the series with VCaP and in the series on LNCaP [13] were 0.127 µM and 3.07 µM, respectively.
For the compound `CC1(C)CC(NC(=O)[C@H](Cc2ccc(OCc3c(Cl)cccc3Cl)cc2)NC(=O)/C(=C\c2ccccc2)c2ccccc2)CC(C)(C)N1`, the results for the IC50 in the series with LNCaP [14] and in the series on CWR22R [15] were 3 µM and 2.6 µM, respectively.
Take `CC(O)(COc1ccc(OCCOCCOc2cccc3c2C(=O)N(C2CCC(=O)NC2=O)C3=O)cc1)C(=O)Nc1ccc(C#N)c(I)c1` (configuration not stated): the EC50 in series [16] came out at 5.21 µM.
As for `COc1ccc(-n2nc3ccc(NC(=O)CO[N+](=O)[O-])cc3n2)cc1`, the Activity in the series on CWR22R [17] is 82%.
As to `COc1ccc(C(=O)n2c(C)cc3cc(Cl)ccc32)cc1`, the IC50 in the series on LNCaP C4-2B [18] stood at 1.09 µM.
On to `C[C@H]1[C@H](OC(=O)CCC(=O)O)O[C@@H]2O[C@@]3(C)CC[C@H]4[C@H](C)CC[C@@H]1[C@@]24OO3` [ARTESUNATE], for which the Activity with PC-3 [19] was above 95%.
Take `COc1ccc2cc3[n+](cc2c1OC)CCc1cc2c(cc1-3)OCO2` [BERBERINE]: the IC50 amounted to 11.2 µM in the series with LNCaP C4-2B [20], 21.5 µM in the series with PC-3 [21], 12.7 µM in the series on CWR22R [22] and 3.4 µM in the series on LNCaP [23].
For the compound `CC(C)c1cc2c(c(O)c1O)[C@@]1(C(=O)O)CCCC(C)(C)[C@@H]1CC2` [CARNOSIC ACID], the Activity in the series with CWR22R [24] worked out at 53%.
With `C[C@]12CC[C@H](O)CC1=CC[C@@H]1[C@@H]2CC[C@]2(C)C(n3cnc4ccccc43)=CC[C@@H]12` [GALETERONE], the IC50 in series [25] came to 0.0122 µM; in [26], 3.55 µM.
Turning to `COc1ccc(-c2cc(=O)c3c(OC)c(OC)c(OC)c(OC)c3o2)cc1OC` [NOBILETIN], the IC50 is 36.5 µM in the series on CWR22R [27], 123 µM in the series with PC-3 [28], 30.3 µM in the series with LNCaP C4-2 and 144 µM with DU-145.
